Source: PubChem BioAssay (NCI)
Where “and” joins values, the source holds several entries; their conditions need not be identical. Identical values can stand only once.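 1) Cells in 96-well plates. 2) Compound, 48 h, 5 concentrations. 3) Linear interpolation between surrounding doses. 4) Unreached endpoint = highest concentration. GI50 marks 50% less growth. Definition used: TGI = concentration required for complete inhibition of growth.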

Legend:
Test in all cases: NCI tumour cell line growth inhibition, 48 h
[1] = test system: A549 NSCLC
[2] = test system: BT-549 breast
[3] = test system: HOP-92 NSCLC
[4] = test system: MDA-MB-435
[5] = test system: OVCAR-3 ovarian
[6] = test system: OVCAR-4 ovarian
[7] = test system: RXF 393 renal
[8] = test system: SK-MEL-2 melanoma
[9] = test system: SW-620 colon
[10] = test system: UACC-62 melanoma

## O=[N+]([O-])c1ccc2c(N=Nc3c(O)ccc4ccccc34)c(O)cc(S(=O)(=O)O)c2c1
[1]
  GI50: 59.7 µM
  TGI: 50 µM and > 100 µM
[2]
  GI50: 37.5 µM
  TGI: 50 µM and > 100 µM
[3]
  TGI: 50 µM
[4]
  GI50: 47.5 µM
  TGI: 50 µM and > 100 µM
[5]
  GI50: 9.36 µM
  TGI: 50 µM and > 100 µM
[6]
  TGI: 50 µM
[7]
  GI50: 27.1 µM
  TGI: 50 µM and > 100 µM
[8]
  GI50: 40.9 µM
  TGI: 50 µM and > 100 µM
[9]
  GI50: 57.7 µM
  TGI: 50 µM and > 100 µM
[10]
  GI50: 34.2 µM
  TGI: 50 µM and > 100 µM

## Cn1cnc([N+](=O)[O-])c1Sc1ncnc2c1ncn2C1OC(CO)C(O)C1O (centres undefined)
[1]
  GI50: 29.3 µM
  TGI: > 100 µM
[2]
  GI50: > 100 µM
  TGI: > 100 µM
[3]
  GI50: 31.3 µM
  TGI: > 100 µM
[4]
  GI50: 3.6 µM
  TGI: > 100 µM
[5]
  GI50: 3.93 µM
  TGI: > 100 µM
[6]
  GI50: 45.3 µM
  TGI: > 100 µM
[7]
  GI50: 24.6 µM
  TGI: > 100 µM
[8]
  GI50: 8.9 µM
  TGI: > 100 µM
[9]
  GI50: 32.6 µM
  TGI: > 100 µM
[10]
  GI50: 5.98 µM
  TGI: > 100 µM

## CCNCCNc1cc(-c2ccc(F)cc2)c(C#N)c2nc3ccccc3n12
[1]
  GI50: 4.78 µM
  TGI: 15.4 µM
[2]
  GI50: 4.53 µM
  TGI: 15.5 µM
[3]
  GI50: 2.82 µM
  TGI: 8.12 µM
[4]
  GI50: 1.78 µM
  TGI: 3.5 µM
[5]
  GI50: 1.97 µM
  TGI: 4.36 µM
[6]
  GI50: 3.4 µM
  TGI: 14.5 µM
[7]
  GI50: 1.71 µM
  TGI: 3.44 µM
[8]
  GI50: 14.2 µM
  TGI: 28.3 µM
[9]
  GI50: 2.95 µM
  TGI: 10.1 µM
[10]
  GI50: 1.9 µM
  TGI: 3.95 µM

## COc1ccc(/C=C(\C#N)c2cc3ccccc3n2C)cc1
[1]
  GI50: 0.514 µM
  TGI: > 100 µM
[2]
  GI50: 0.627 µM
  TGI: > 100 µM
[3]
  GI50: 1.5 µM
  TGI: > 100 µM
[4]
  GI50: 0.153 µM
  TGI: 0.403 µM
[5]
  GI50: 0.336 µM
  TGI: 3.19 µM
[6]
  GI50: 1.09 µM
  TGI: > 100 µM
[7]
  GI50: 0.244 µM
  TGI: 0.834 µM
[8]
  GI50: 0.471 µM
  TGI: > 100 µM
[9]
  GI50: 0.357 µM
  TGI: > 100 µM
[10]
  GI50: 0.504 µM
  TGI: > 100 µM

## C#Cc1ccc(NC(=O)c2ccc(/C=C/C(=O)c3nccn3C)cc2)cc1
[1]
  GI50: 0.702 µM
  TGI: 5.02 µM
[2]
  GI50: 0.358 µM
  TGI: 0.845 µM
[3]
  GI50: 0.53 µM
  TGI: 2.23 µM
[4]
  GI50: 0.58 µM
  TGI: 1.5 µM
[5]
  GI50: 0.416 µM
  TGI: 0.792 µM
[6]
  GI50: 0.727 µM
  TGI: 25 µM
[7]
  GI50: 0.408 µM
  TGI: 0.796 µM
[8]
  GI50: 1.63 µM
  TGI: 6.68 µM
[9]
  GI50: 0.382 µM
  TGI: 1.01 µM
[10]
  GI50: 0.481 µM
  TGI: 1.12 µM

## COc1ccc([C@H]2O[C@@H](CO)C[C@]2(O)c2ccc(OC)cc2)cc1
[1]
  GI50: > 100 µM
  TGI: > 100 µM
[2]
  GI50: > 100 µM
  TGI: > 100 µM
[3]
  GI50: 95.6 µM
  TGI: > 100 µM
[4]
  GI50: > 100 µM
  TGI: > 100 µM
[5]
  GI50: > 100 µM
  TGI: > 100 µM
[6]
  GI50: > 100 µM
  TGI: > 100 µM
[7]
  GI50: 28.4 µM
  TGI: > 100 µM
[9]
  GI50: > 100 µM
  TGI: > 100 µM
[10]
  GI50: > 100 µM
  TGI: > 100 µM

## COc1ccc(-c2ccc(-c3ccc(C(=N)N)cn3)s2)cc1Cl
[2]
  GI50: 1.67 µM
  TGI: 3.43 µM
[3]
  GI50: 1.68 µM
  TGI: 3.66 µM
[4]
  GI50: 1.43 µM
  TGI: 2.73 µM
[5]
  GI50: 1.83 µM
  TGI: 3.32 µM
[6]
  GI50: 1.61 µM
  TGI: 3.3 µM
[7]
  GI50: 1.98 µM
  TGI: 3.87 µM
[8]
  GI50: 2.01 µM
  TGI: 4.14 µM
[9]
  GI50: 1.4 µM
  TGI: 2.73 µM
[10]
  GI50: 1.88 µM
  TGI: 3.65 µM

## c1ccc(-c2nc(N3CCNCC3)c3nc(-c4ccccc4)oc3n2)cc1
[2]
  GI50: 1.67 µM
  TGI: 3.24 µM
[3]
  GI50: 1.5 µM
  TGI: 3.1 µM
[4]
  GI50: 1.79 µM
  TGI: 3.22 µM
[5]
  GI50: 1.78 µM
  TGI: 3.25 µM
[6]
  GI50: 1.9 µM
  TGI: 3.63 µM
[7]
  GI50: 1.83 µM
  TGI: 3.48 µM
[8]
  GI50: 1.91 µM
  TGI: 3.74 µM
[9]
  GI50: 1.86 µM
  TGI: 3.57 µM
[10]
  GI50: 1.78 µM
  TGI: 3.23 µM

## CC(=O)OC1CCC2(C)C(=CC(C3C=C4CC(OC(C)=O)CCC4(C)C4=C3C3CC5OC6(CCC(C)CO6)C(C)C5C3(C)CC4)C3=C2CCC2(C)C3CC3OC4(CCC(C)CO4)C(C)C32)C1 (centres undefined)
[1]
  TGI: 26.5 µM
[2]
  TGI: 29.7 µM
[3]
  TGI: 27.1 µM
[4]
  TGI: 27.1 µM
[5]
  TGI: 28.6 µM
[6]
  TGI: 28.2 µM
[7]
  TGI: 31.5 µM
[8]
  TGI: 33.9 µM
[10]
  TGI: 26.1 µM

## COc1ccc2c(c1)OC13Oc4cc(OC)ccc4C=C1CCCC3=C2
[1]
  GI50: > 100 µM
  TGI: > 100 µM
[2]
  GI50: > 100 µM
  TGI: > 100 µM
[3]
  GI50: 4.46 µM
  TGI: > 100 µM
[4]
  GI50: 5.52 µM
  TGI: > 100 µM
[6]
  GI50: > 100 µM
  TGI: > 100 µM
[7]
  GI50: > 100 µM
  TGI: > 100 µM
[8]
  GI50: > 100 µM
  TGI: > 100 µM
[9]
  GI50: > 100 µM
  TGI: > 100 µM
[10]
  GI50: 4.5 µM
  TGI: > 100 µM
